Positions of bridges follow the written chain, without caps; N, C: chain ends. Non-standard residues stand in square brackets, D forms with d. Residues, ends and D or L forms follow the SMILES beside them. Bip = N[C@@H](Cc1ccc(-c2ccccc2)cc1)C(=O)O; Hyp = O=C(O)[C@@H]1C[C@@H](O)CN1; Nle = CCCC[C@H](N)C(=O)O; Orn = NCCC[C@H](N)C(=O)O; Aib = CC(C)(N)C(=O)O
How the values were obtained:
[1] = In vitro plasma stability and predicted half-life (HPLC main peak area, Example 3); type: in vitro ADME; conditions: human plasma (EDTA anticoagulant), 37°C, sampled up to 24 h, predicted half-life calculated with Winolin
How it was run: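 Peptides (10 mg in 5 mL human EDTA plasma) incubated at 37°C, sampled from 0 min up to 24 h. Samples quenched with acetonitrile, centrifuged and analysed by HPLC for main peak area; in vitro half-life predicted from peak-area decline by pharmacokinetic fitting.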

[2] = tested on: mouse oxaliplatin-induced acute chemotherapy pain model; experiment: Mouse oxaliplatin chemotherapy pain model, different doses (Example 7); type: in vivo
Experimental: Oxaliplatin was dissolved in 5% glucose solution to a concentration of 1 mg/mL. For model induction, each male C57 mouse (Hangzhou Ziyuan Experimental Animal Technology Co., Ltd.) received a single intraperitoneal injection of oxaliplatin at 10 mg/kg. Mice in the negative control or blank control group received 5% glucose solution. Approximately one week after model induction, mechanical pain thresholds of the mice were measured three times per mouse, and the average value was calculated. Mice were then randomly assigned to groups based on their pain thresholds. Drug administration was carried out according to the dosing schedule shown in Table 6, with a single dose per mouse. Mechanical pain thresholds were measured at 0.5, 1, 2, 4, 6, and 8 h post-dose. […] Table 6 Dosing Scheme for Oxaliplatin Chemotherapy Pain Model

[3] = tested on: rat CCI model; experiment: Rat CCI (chronic constriction injury) model (Example 9); type: in vivo
Description: Neuropathic pain has many types, and animal models can simulate clinical neuropathic pain. Common SD rat sciatic nerve neuropathic pain models include CCI (Chronic Constriction Injury), SNI (Spared Nerve Injury), SNL (Spinal Nerve Ligation), and CCD (using stainless steel wire through the intervertebral foramen to fix and compress the dorsal root ganglion). Among them, the CCI model is widely used to study neuropathic pain, providing a basis for further research on mechanisms and strategies for nerve injury repair (Wen Xiaojun, Medical Information, Jan. 2018, Vol. 31, No.1). In this example, the CCI model was employed.
Except for the control group, the remaining SD rats were anesthetized via intraperitoneal injection of 10% chloral hydrate saline solution at a dose of 0.3 mL per 100 g body weight, and surgical modeling was performed. The right hind limb skin was carefully incised, muscles were separated, and the sciatic nerve was ligated three times using 4-0 surgical silk, spaced 1 mm apart. Muscles and skin were sutured, and antibiotics were applied to the wound to prevent infection. […] Approximately 10 days post-surgery, plantar pain thresholds were measured three times for each rat, and the average value was calculated. Rats were randomly assigned to groups based on pain thresholds. Drug administration was performed according to Table 8, and plantar pain thresholds were measured at 2 h, 4 h, 6 h, and 8 h after administration.

Compound: CCCC[C@H](NC(=O)[C@@H](NC(=O)[C@H]1CSSC[C@H](NC(=O)[C@H](CO)NC(=O)CN)C(=O)N[C@@H](CO)C(=O)N[C@H]([C@H](C)O)C(=O)N2C[C@H](O)C[C@H]2C(=O)N2C[C@H](O)C[C@H]2C(=O)NC(C)(C)C(=O)N1)C(C)C)C(=O)N[C@@H](Cc1ccc(-c2ccccc2)cc1)C(=O)N[C@@H](CCCN)C(N)=O [AJ003-36, GSCS-(D-Thr)-Hyp-Hyp-Aib-(D-Cys)-V-Nle-Bip-Orn-NH2 (3,9 disulfide bond)] (H-GSCS[dT][Hyp][Hyp][Aib][dC]V[Nle][Bip][Orn]-NH2; disulfide 3-9)
- half-life at 2 mg/mL [1]: 65.3 h
- analgesic activity compared with the model group (mechanical pain threshold) ([2]; single dose, 0.5, 1, 2 and 4 h post-dose, 1 mg/kg s.c. (low dose)): significant analgesic activity
- analgesic activity compared with the model group (mechanical pain threshold) ([2]; single dose, 0.5, 1, 2 and 4 h post-dose, 2 mg/kg s.c. (AJ003; AJ003-36 medium dose)): significant analgesic activity
- analgesic activity compared with the model group (mechanical pain threshold) ([2]; single dose, 0.5, 1, 2 and 4 h post-dose, 3 mg/kg s.c. (high dose)): significant analgesic activity
- analgesic activity compared with the model group (mechanical pain threshold) ([2]; single dose, 6 h post-dose, 1 mg/kg s.c. (low dose)): significant analgesic activity
- analgesic activity compared with the model group (mechanical pain threshold) ([2]; single dose, 6 h post-dose, 2 mg/kg s.c. (AJ003; AJ003-36 medium dose)): significant analgesic activity
- analgesic activity compared with the model group (mechanical pain threshold) ([2]; single dose, 6 h post-dose, 3 mg/kg s.c. (high dose)): significant analgesic activity
- analgesic activity compared with the model group (mechanical pain threshold) ([2]; single dose, 8 h post-dose, 1 mg/kg s.c. (low dose)): no significant effect
- analgesic activity compared with the model group (mechanical pain threshold) ([2]; single dose, 8 h post-dose, 2 mg/kg s.c. (AJ003; AJ003-36 medium dose)): significant analgesic activity
- analgesic activity compared with the model group (mechanical pain threshold) ([2]; single dose, 8 h post-dose, 3 mg/kg s.c. (high dose)): significant analgesic activity
- analgesic activity compared with the model group (mechanical pain threshold) ([3]; Day 1 of dosing, 2 h and 4 h, 0.5 mg/kg s.c. (low dose)): significant analgesic activity
- analgesic activity compared with the model group (mechanical pain threshold) ([3]; Day 1 of dosing, 2 h and 4 h, 1 mg/kg s.c. (AJ003; AJ003-36 medium dose)): significant analgesic activity
- analgesic activity compared with the model group (mechanical pain threshold) ([3]; Day 1 of dosing, 2 h and 4 h, 2 mg/kg s.c. (high dose)): significant analgesic activity
- analgesic activity compared with the model group (mechanical pain threshold) ([3]; Day 1 of dosing, 6 h, 0.5 mg/kg s.c. (low dose)): significant analgesic activity
- analgesic activity compared with the model group (mechanical pain threshold) ([3]; Day 1 of dosing, 6 h, 1 mg/kg s.c. (AJ003; AJ003-36 medium dose)): significant analgesic activity
- analgesic activity compared with the model group (mechanical pain threshold) ([3]; Day 1 of dosing, 6 h, 2 mg/kg s.c. (high dose)): significant analgesic activity
- analgesic activity compared with the model group (mechanical pain threshold) ([3]; Day 1 of dosing, 8 h, 0.5 mg/kg s.c. (low dose)): not significantly different
- analgesic activity compared with the model group (mechanical pain threshold) ([3]; Day 1 of dosing, 8 h, 1 mg/kg s.c. (AJ003; AJ003-36 medium dose)): significant analgesic activity
- analgesic activity compared with the model group (mechanical pain threshold) ([3]; Day 1 of dosing, 8 h, 2 mg/kg s.c. (high dose)): significant analgesic activity
- analgesic activity compared with the model group (mechanical pain threshold) ([3]; Day 4 of dosing, 2 h and 4 h, 0.5 mg/kg s.c. (low dose)): significant analgesic activity
- analgesic activity compared with the model group (mechanical pain threshold) ([3]; Day 4 of dosing, 2 h and 4 h, 1 mg/kg s.c. (AJ003; AJ003-36 medium dose)): significant analgesic activity
- analgesic activity compared with the model group (mechanical pain threshold) ([3]; Day 4 of dosing, 2 h and 4 h, 2 mg/kg s.c. (high dose)): significant analgesic activity
- analgesic activity compared with the model group (mechanical pain threshold) ([3]; Day 4 of dosing, 6 h and 8 h, 0.5 mg/kg s.c. (low dose)): no longer significant
- analgesic activity compared with the model group (mechanical pain threshold) ([3]; Day 4 of dosing, 6 h and 8 h, 1 mg/kg s.c. (AJ003; AJ003-36 medium dose)): remained significant
- analgesic activity compared with the model group (mechanical pain threshold) ([3]; Day 4 of dosing, 6 h and 8 h, 2 mg/kg s.c. (high dose)): remained significant
- analgesic activity compared with the model group (mechanical pain threshold) ([3]; Day 7 of dosing, 2 h and 4 h, 0.5 mg/kg s.c. (low dose)): significant analgesic activity
- analgesic activity compared with the model group (mechanical pain threshold) ([3]; Day 7 of dosing, 2 h and 4 h, 1 mg/kg s.c. (AJ003; AJ003-36 medium dose)): significant analgesic activity
- analgesic activity compared with the model group (mechanical pain threshold) ([3]; Day 7 of dosing, 2 h and 4 h, 2 mg/kg s.c. (high dose)): significant analgesic activity
- analgesic activity compared with the model group (mechanical pain threshold) ([3]; Day 7 of dosing, 6 h, 0.5 mg/kg s.c. (low dose)): still significant
- analgesic activity compared with the model group (mechanical pain threshold) ([3]; Day 7 of dosing, 6 h, 1 mg/kg s.c. (AJ003; AJ003-36 medium dose)): still significant
- analgesic activity compared with the model group (mechanical pain threshold) ([3]; Day 7 of dosing, 6 h, 2 mg/kg s.c. (high dose)): still significant
- analgesic activity compared with the model group (mechanical pain threshold) ([3]; Day 7 of dosing, 8 h, 0.5 mg/kg s.c. (low dose)): not significant
- analgesic activity compared with the model group (mechanical pain threshold) ([3]; Day 7 of dosing, 8 h, 1 mg/kg s.c. (AJ003; AJ003-36 medium dose)): remained significant
- analgesic activity compared with the model group (mechanical pain threshold) ([3]; Day 7 of dosing, 8 h, 2 mg/kg s.c. (high dose)): remained significant
- analgesic activity compared with the model group (mechanical pain threshold) ([3]; Day 10 of dosing, 2 h and 4 h, 0.5 mg/kg s.c. (low dose)): significant analgesic activity
- analgesic activity compared with the model group (mechanical pain threshold) ([3]; Day 10 of dosing, 2 h and 4 h, 1 mg/kg s.c. (AJ003; AJ003-36 medium dose)): significant analgesic activity
- analgesic activity compared with the model group (mechanical pain threshold) ([3]; Day 10 of dosing, 2 h and 4 h, 2 mg/kg s.c. (high dose)): significant analgesic activity
- analgesic activity compared with the model group (mechanical pain threshold) ([3]; Day 10 of dosing, 6 h, 0.5 mg/kg s.c. (low dose)): remained significant
- analgesic activity compared with the model group (mechanical pain threshold) ([3]; Day 10 of dosing, 6 h, 1 mg/kg s.c. (AJ003; AJ003-36 medium dose)): remained significant
- analgesic activity compared with the model group (mechanical pain threshold) ([3]; Day 10 of dosing, 6 h, 2 mg/kg s.c. (high dose)): remained significant
- analgesic activity compared with the model group (mechanical pain threshold) ([3]; Day 10 of dosing, 8 h, 0.5 mg/kg s.c. (low dose)): not significant
- analgesic activity compared with the model group (mechanical pain threshold) ([3]; Day 10 of dosing, 8 h, 1 mg/kg s.c. (AJ003; AJ003-36 medium dose)): remained significant
- analgesic activity compared with the model group (mechanical pain threshold) ([3]; Day 10 of dosing, 8 h, 2 mg/kg s.c. (high dose)): remained significant
- analgesic activity compared with the model group (mechanical pain threshold) ([3]; Day 14 of dosing, 2 h and 4 h, 0.5 mg/kg s.c. (low dose)): significant analgesic activity
- analgesic activity compared with the model group (mechanical pain threshold) ([3]; Day 14 of dosing, 2 h and 4 h, 1 mg/kg s.c. (AJ003; AJ003-36 medium dose)): significant analgesic activity
- analgesic activity compared with the model group (mechanical pain threshold) ([3]; Day 14 of dosing, 2 h and 4 h, 2 mg/kg s.c. (high dose)): significant analgesic activity
- analgesic activity compared with the model group (mechanical pain threshold) ([3]; Day 14 of dosing, 6 h, 0.5 mg/kg s.c. (low dose)): remained significant
- analgesic activity compared with the model group (mechanical pain threshold) ([3]; Day 14 of dosing, 6 h, 1 mg/kg s.c. (AJ003; AJ003-36 medium dose)): remained significant
- analgesic activity compared with the model group (mechanical pain threshold) ([3]; Day 14 of dosing, 6 h, 2 mg/kg s.c. (high dose)): remained significant
- analgesic activity compared with the model group (mechanical pain threshold) ([3]; Day 14 of dosing, 8 h, 0.5 mg/kg s.c. (low dose)): not significant
- analgesic activity compared with the model group (mechanical pain threshold) ([3]; Day 14 of dosing, 8 h, 1 mg/kg s.c. (AJ003; AJ003-36 medium dose)): remained significant
- analgesic activity compared with the model group (mechanical pain threshold) ([3]; Day 14 of dosing, 8 h, 2 mg/kg s.c. (high dose)): remained significant
